Experimental data published in ChEMBL document CHEMBL1150716, “Cytotoxic flavonols from Gutierrezia microcephala” (1987).
≈ marks a conversion by molar mass, not a printed value.

Test system: P388
Assay: Cytotoxicity against mouse P388 cells
Assay type: functional
Details: read-out: ED50 (the source's name)

Question: `COc1cc(O)c2c(=O)c(OC)c(-c3ccc(O)c(O)c3)oc2c1` was tested. Which EC50 did it give?
Answer: 3.2 µg/mL (≈ 9.69 µM)

Question: How did the EC50 turn out when `COc1cc(-c2oc3cc(O)cc(O)c3c(=O)c2OC)ccc1O` [3,3'-O-DIMETHYLQUERCETIN] was run?
Answer: 1.7 µg/mL (≈ 5.15 µM)
